Data from ChEMBL document CHEMBL1155006, “Anti-retroviral and cytostatic activity of 2',3'-dideoxyribonucleoside 3'-disulfides” (Bioorg Med Chem, 2008).
pEC50, pIC50: −log10 of the molar value.

Assays:
[1] = system: Human immunodeficiency virus 1; test: Antiviral activity against HIV1 in CEM cells assessed as reduction of viral replication at 5 to 10 uM; type: functional, CCRF-CEM; design: scale not given: the % may be the effect or the level left
[2] = Cytotoxicity against human CEM/0 cells; type: cell-based, CCRF-CEM
[3] = system: Human immunodeficiency virus 2; test: Antiviral activity against HIV2 ROD in CEM/0 cells assessed as inhibition of virus-induced cytopathogenicity; type: functional, organism-based; conditions: Human immunodeficiency virus 2, ROD, CCRF-CEM
[4] = system: Human immunodeficiency virus 2; test: Antiviral activity against HIV2 ROD in TK1 deficient human CEM cells assessed as inhibition of virus-induced cytopathogenicity; type: functional, organism-based; conditions: Human immunodeficiency virus 2, ROD, CCRF-CEM
[5] = Cytotoxicity against human Molt4/C8; type: functional, cell-based; conditions: MOLT-4
[6] = Chemical stability assessed as half life at pH 7.2 in methanol-water mixture; type: physicochemical
[7] = target: T1, Thymidine kinase, cytosolic (Homo sapiens, UniProt P04183); test: Inhibition of recombinant TK1-mediated phosphorylation of [CH3-3H]deoxythymidine
T1 sequence (P04183 whole entry): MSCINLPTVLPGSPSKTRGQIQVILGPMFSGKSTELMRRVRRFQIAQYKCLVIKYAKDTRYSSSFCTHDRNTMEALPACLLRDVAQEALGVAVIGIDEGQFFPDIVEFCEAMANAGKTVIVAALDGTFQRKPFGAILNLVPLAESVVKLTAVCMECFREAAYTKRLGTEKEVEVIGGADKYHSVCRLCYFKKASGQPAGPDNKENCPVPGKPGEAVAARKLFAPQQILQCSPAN

[8] = target: T1, Thymidine kinase, cytosolic; test: Inhibition of recombinant TK1-mediated phosphorylation of [CH3-3H]deoxythymidine in presence of dithiothreitol
[9] = system: Human immunodeficiency virus 1; test: Antiviral activity against HIV1 3B in CEM/0 cells assessed as inhibition of virus-induced cytopathogenicity; type: functional, organism-based; conditions: Human immunodeficiency virus 1, 3B, CCRF-CEM
[10] = Chemical stability assessed as half life in presence of dithiothreitol; type: physicochemical
[11] = system: Moloney murine sarcoma virus; test: Inhibition of murine sarcoma virus-induced transformation of mouse embryo fibroblast C3H/3T3 cells after 6 days; conditions: C3H/3T3, 144 h
[12] = system: Human immunodeficiency virus 1; test: Antiviral activity against HIV1 in human MT4 cells; type: functional, organism-based; conditions: Human immunodeficiency virus 1, MT4
[13] = Cytotoxicity against human MT4 cells; type: cell-based

Row | SMILES | Activity [1] [%] | CC50 [2] [µM] | pEC50 [3] | pEC50 [4] | pIC50 [5] | half-life [6] [min] | pIC50 [7] | pIC50 [8] | pEC50 [9] | half-life [10] [min] | pEC50 [11] | pEC50 [12] | CC50 [13] [µM]
1 | CSS[C@H]1C[C@H](n2cc(C)c(=O)[nH]c2=O)O[C@@H]1CO | 50 | 102 | 4.92 | < 4.30 | 4.18 | < 5 | 4.14 | 3.48 | 4.92 | < 480 | 5.08 | – | –
2 | Cc1cn([C@H]2C[C@H](SSC(Cl)(Cl)Cl)[C@@H](CO)O2)c(=O)[nH]c1=O | – | 103 | 4.76 | 4.65 | 4.26 | < 5 | 4.89 | 3.44 | 4.70 | < 90 | < 4.70 | – | –
3 | Cc1cn([C@H]2C[C@H](SSc3ccc([N+](=O)[O-])cc3)[C@@H](CO)O2)c(=O)[nH]c1=O | – | 23 | 5.14 | ≤ 5.00 | 4.54 | < 5 | – | – | 5.10 | < 10 | 6.05 | – | –
4 | O=c1nc(O)ccn1[C@H]1C[C@H](SS[C@H]2C[C@H](n3ccc(O)nc3=O)O[C@@H]2CO)[C@@H](CO)O1 | – | ≥ 250 | < 3.60 | – | – | – | – | – | < 3.60 | – | – | – | –
5 | CSS[C@H]1C[C@H](n2cc(Br)c(=O)[nH]c2=O)O[C@@H]1CO | – | 103 | ≤ 4.30 | – | – | – | – | – | ≤ 4.30 | – | – | – | –
6 | C=CCSS[C@H]1C[C@H](n2cc(C)c(=O)[nH]c2=O)O[C@@H]1CO | – | 53 | 4.82 | < 4.30 | 4.47 | < 5 | – | – | 4.90 | < 480 | 5.66 | – | –
7 | Cc1cn([C@H]2C[C@H](SSCCO)[C@@H](CO)O2)c(=O)[nH]c1=O | – | 347 | 4.85 | < 4.30 | 3.89 | < 5 | 4.74 | 3.39 | 4.87 | < 480 | 5.23 | – | –
8 | Cc1cn([C@H]2C[C@H](SSCCN)[C@@H](CO)O2)c(=O)[nH]c1=O | – | 437 | 4.56 | 3.82 | 3.79 | < 5 | 5.00 | 3.38 | 4.70 | < 480 | 4.20 | – | –
9 | Nc1ccn([C@H]2C[C@H](SS[C@H]3C[C@H](n4ccc(N)nc4=O)O[C@@H]3CO)[C@@H](CO)O2)c(=O)n1 | – | 216 | 4.19 | – | – | – | – | – | 4.14 | – | – | – | –
10 | CCCCCCCCSS[C@H]1C[C@H](n2cc(C)c(=O)[nH]c2=O)O[C@@H]1CO | – | 21 | 5.35 | < 5.00 | 4.59 | < 5 | – | – | 4.70 | < 480 | – | – | –
11 | CSS[C@H]1C[C@H](n2ccc(=O)[nH]c2=O)O[C@@H]1CO | – | 170 | ≤ 4.30 | – | – | – | – | – | < 4.30 | – | – | – | –
12 | CSS[C@H]1C[C@H](n2ccc(N)nc2=O)O[C@@H]1CO | – | 111 | 4.85 | 4.35 | 3.83 | < 5 | – | – | 5.00 | – | 4.32 | – | –
13 | Cc1cn([C@H]2C[C@H](SSc3ccccc3[N+](=O)[O-])[C@@H](CO)O2)c(=O)[nH]c1=O | – | 18.5 | < 5.00 | < 5.00 | 4.51 | < 5 | – | – | 5.00 | < 10 | 5.96 | – | –
14 | O=c1[nH]c(=O)n([C@H]2C[C@H](SS[C@H]3C[C@H](n4cc(Br)c(=O)[nH]c4=O)O[C@@H]3CO)[C@@H](CO)O2)cc1Br | – | > 250 | ≤ 3.60 | – | – | – | – | – | 3.90 | – | – | – | –
15 | CCCCSS[C@H]1C[C@H](n2cc(C)c(=O)[nH]c2=O)O[C@@H]1CO | – | 23.3 | < 5.00 | < 5.00 | 4.55 | < 5 | – | – | 5.10 | < 480 | 6.00 | – | –
16 | Cc1cn([C@H]2C[C@H](SSCCCCCCO)[C@@H](CO)O2)c(=O)[nH]c1=O | – | 52 | 4.82 | < 4.30 | 4.38 | < 5 | – | – | 4.82 | < 480 | – | – | –
17 | CCCCCCSS[C@H]1C[C@H](n2cc(C)c(=O)[nH]c2=O)O[C@@H]1CO | – | 39 | 5.19 | < 5.00 | 4.57 | < 5 | – | – | 4.70 | < 480 | – | – | –
18 | Cc1cn([C@H]2C[C@H](SS[C@H]3C[C@H](n4cc(C)c(O)nc4=O)O[C@@H]3CO)[C@@H](CO)O2)c(=O)nc1O | – | – | – | – | – | – | – | – | – | – | – | 4.80 | 34
19 | Nc1ccn(C2C[C@H](S)[C@@H](CO)O2)c(=O)n1 (single isomer, unassigned) | – | – | – | – | – | – | – | – | – | – | – | 4.70 | –
20 | Nc1ncnc2c1ncn2CCOCP(=O)(O)O [ADEFOVIR] | – | – | – | – | – | – | – | – | – | – | 6.28 | – | –
21 | C[C@H](Cn1cnc2c(N)ncnc21)OCP(=O)(O)O [TENOFOVIR ANHYDROUS] | – | – | – | – | – | – | – | – | 5.26 | – | 6.64 | – | –
